The values that follow come from patent US9873709B2 (priority 2013, dated 2018).

This test has as its system JAK1-dependent STAT6 phosphorylation downstream of IL-13 stimulation in TF-1 human erythroleukemia cells. Nature of the test: cells. The settings on record: TF-1, read-out: IL-13-pSTAT6 IC50.
As for `CC(C)CN1CCN(C(=O)c2ccc(Nc3nc4c(C5=CCN(C(=O)CCC(F)(F)F)CC5)cccn4n3)cc2)CC1` [Example 2-266, 4,4,4-trifluoro-1-[4-[2-[4-(4-isobutylpiperazine-1-carbonyl)anilino]-[1,2,4]triazolo[1,5-a]pyridin-8-yl]-3,6-dihydro-2H-pyridin-1-yl]butan-1-one], the IC50 – broadly, the concentration that gives 50% inhibition – stood at 9.7 nM. Under `CN1CCC(N(C)C(=O)c2ccc(Nc3nc4c(C5=CCN(C(=O)CCC(F)(F)F)CC5)cccn4n3)cc2)C1` (centres unmarked) [Example 2-267, N-methyl-N-(1-methylpyrrolidin-3-yl)-4-[[8-[1-(4,4,4-trifluorobutanoyl)-3,6-dihydro-2H-pyridin-4-yl]-[1,2,4]triazolo[1,5-a]pyridin-2-yl]amino]benzamide] stands 8.7 nM.

Regarding `CC1CC(C)CN(CCNC(=O)c2ccc(Nc3nc4c(C5=CCN(C(=O)CCC(F)(F)F)CC5)cccn4n3)cc2)C1` (centres unmarked) [Example 2-269, N-[2-(3,5-dimethyl-1-piperidyl)ethyl]-4-[[8-[1-(4,4,4-trifluorobutanoyl)-3,6-dihydro-2H-pyridin-4-yl]-[1,2,4]triazolo[1,5-a]pyridin-2-yl]amino]benzamide], the IC50 was 5.1 nM.

Consider `CN1CCN(CCNC(=O)c2ccc(Nc3nc4c(C5=CCN(C(=O)CCC(F)(F)F)CC5)cccn4n3)cc2)CC1` [Example 2-270, N-[2-(4-methylpiperazin-1-yl)ethyl]-4-[[8-[1-(4,4,4-trifluorobutanoyl)-3,6-dihydro-2H-pyridin-4-yl]-[1,2,4]triazolo[1,5-a]pyridin-2-yl]amino]benzamide], for which the IC50 was 16.4 nM. For `O=C(CCC(F)(F)F)N1CC=C(c2cccn3nc(Nc4ccc(C(=O)N5CCCC5c5ccncc5)cc4)nc23)CC1` (centres unmarked) [Example 2-273, 4,4,4-trifluoro-1-[4-[2-[4-[2-(4-pyridyl)pyrrolidine-1-carbonyl]anilino]-[1,2,4]triazolo[1,5-a]pyridin-8-yl]-3,6-dihydro-2H-pyridin-1-yl]butan-1-one], the IC50 amounted to 5.5 nM. Take `CN1CCC(CCNC(=O)c2ccc(Nc3nc4c(C5=CCN(C(=O)CCC(F)(F)F)CC5)cccn4n3)cc2)CC1` [Example 2-274, N-[2-(1-methyl-4-piperidyl)ethyl]-4-[[8-[1-(4,4,4-trifluorobutanoyl)-3,6-dihydro-2H-pyridin-4-yl]-[1,2,4]triazolo[1,5-a]pyridin-2-yl]amino]benzamide]: the IC50 was determined as 45 nM. With `CNC(=O)C1CN(C(=O)c2ccc(Nc3nc4c(C5=CCN(C(=O)CCC(F)(F)F)CC5)cccn4n3)cc2)CCN1C` (centres unmarked) [Example 2-275, N,1-dimethyl-4-[4-[[8-[1-(4,4,4-trifluorobutanoyl)-3,6-dihydro-2H-pyridin-4-yl]-[1,2,4]triazolo[1,5-a]pyridin-2-yl]amino]benzoyl] piperazine-2-carboxamide], the IC50 turned out to be 37.2 nM.

`CNC(=O)C1CN(C)CCN1C(=O)c1ccc(Nc2nc3c(C4=CCN(C(=O)CCC(F)(F)F)CC4)cccn3n2)cc1` (centres unmarked) [Example 2-276, N,4-dimethyl-1-[4-[[8-[1-(4,4,4-trifluorobutanoyl)-3,6-dihydro-2H-pyridin-4-yl]-[1,2,4]triazolo[1,5-a]pyridin-2-yl]amino]benzoyl] piperazine-2-carboxamide]: the IC50 came out at 129 nM. The same measure for `O=C(CCC(F)(F)F)N1CC=C(c2cccn3nc(Nc4ccc(C(=O)N5CCC(Cc6cccnc6)CC5)cc4)nc23)CC1` [Example 2-277, 4,4,4-trifluoro-1-[4-[2-[4-[4-(3-pyridylmethyl)piperidine-1-carbonyl]anilino]-[1,2,4]triazolo[1,5-a]pyridin-8-yl]-3,6-dihydro-2H-pyridin-1-yl]butan-1-one]: 19.8 nM; for `O=C(CCC(F)(F)F)N1CC=C(c2cccn3nc(Nc4ccc(C(=O)N5CCCN(c6ccncc6)CC5)cc4)nc23)CC1` [Example 2-278, 4,4,4-trifluoro-1-[4-[2-[4-[4-(4-pyridyl)-1,4-diazepane-1-carbonyl]anilino]-[1,2,4]triazolo[1,5-a]pyridin-8-yl]-3,6-dihydro-2H-pyridin-1-yl]butan-1-one]: 39.3 nM; for `O=C(CCC(F)(F)F)N1CC=C(c2cccn3nc(Nc4ccc(C(=O)N(CCO)Cc5cccnc5)cc4)nc23)CC1` [Example 2-279, N-(2-hydroxyethyl)-N-(3-pyridylmethyl)-4-[[8-[1-(4,4,4-trifluorobutanoyl)-3,6-dihydro-2H-pyridin-4-yl]-[1,2,4]triazolo[1,5-a]pyridin-2-yl]amino]benzamide]: 38.8 nM. Under `O=C(CCC(F)(F)F)N1CC=C(c2cccn3nc(Nc4ccc(C(=O)N5CCCCC5c5cccnc5)cc4)nc23)CC1` (centres unmarked) [Example 2-280, 4,4,4-trifluoro-1-[4-[2-[4-[2-(3-pyridyl)piperidine-1-carbonyl]anilino]-[1,2,4]triazolo[1,5-a]pyridin-8-yl]-3,6-dihydro-2H-pyridin-1-yl]butan-1-one] stands 9.5 nM; under `CN1CCC(N(C)C(=O)c2ccc(Nc3nc4c(C5=CCN(C(=O)C6CCCC6)CC5)cccn4n3)cc2)CC1` [Example 2-281, 4-[[8-[1-(cyclopentanecarbonyl)-3,6-dihydro-2H-pyridin-4-yl]-[1,2,4]triazolo[1,5-a]pyridin-2-yl]amino]-N-methyl-N-(1-methyl-4-piperidyl)benzamide], 39.4 nM; under `CN1CCC(N(C)C(=O)c2ccc(Nc3nc4c(C5=CCN(C(=O)OC6COC6)CC5)cccn4n3)cc2)CC1` [Example 2-283, oxetan-3-yl-4-[2-[4-[methyl-(1-methyl-4-piperidyl)carbamoyl]anilino]-[1,2,4]triazolo[1,5-a]pyridin-8-yl]-3,6-dihydro-2H-pyridine-1-carboxylate], 54 nM. The same measure for `CN1CCC(N(C)C(=O)c2ccc(Nc3nc4c(C5=CCN(c6ccccc6)CC5)cccn4n3)cc2)CC1` [Example 2-284, N-methyl-N-(1-methyl-4-piperidyl)-4-[[8-(1-phenyl-3,6-dihydro-2H-pyridin-4-yl)-[1,2,4]triazolo[1,5-a]pyridin-2-yl]amino]benzamide]: 163 nM; for `CN1CCC(N(C)C(=O)c2ccc(Nc3nc4c(C5=CCN(C(=O)N6CC7(COC7)C6)CC5)cccn4n3)cc2)CC1` [Example 2-286, N-methyl-N-(1-methyl-4-piperidyl)-4-[[8-[1-(2-oxa-6-azaspiro[3.3]heptane-6-carbonyl)-3,6-dihydro-2H-pyridin-4-yl]-[1,2,4]triazolo[1,5-a]pyridin-2-yl]amino]benzamide]: 1750 nM. Take `CN1CCC(N(C)C(=O)c2ccc(Nc3nc4c(C5=CCN(C(=O)CCC#N)CC5)cccn4n3)cc2)CC1` [Example 2-287, 4-[[8-[1-(3-cyanopropanoyl)-3,6-dihydro-2H-pyridin-4-yl]-[1,2,4]triazolo[1,5-a]pyridin-2-yl]amino]-N-methyl-N-(1-methyl-4-piperidyl)benzamide]: the IC50 worked out at 248 nM. With `CCCC(=O)N1CC=C(c2cccn3nc(Nc4ccc(C(=O)N(C)C5CCN(C)CC5)cc4)nc23)CC1` [Example 2-289, 4-[[8-(1-butanoyl-3,6-dihydro-2H-pyridin-4-yl)-[1,2,4]triazolo[1,5-a]pyridin-2-yl]amino]-N-methyl-N-(1-methyl-4-piperidyl)benzamide], the IC50 amounted to 42.9 nM.

As for `CN1CCC(N(C)C(=O)c2ccc(Nc3nc4c(C5=CCN(C(=O)N6CC(C)(C)C6)CC5)cccn4n3)cc2)CC1` [Example 2-290, 4-[[8-[1-(3,3-dimethylazetidine-1-carbonyl)-3,6-dihydro-2H-pyridin-4-yl]-[1,2,4]triazolo[1,5-a]pyridin-2-yl]amino]-N-methyl-N-(1-methyl-4-piperidyl)benzamide], the half-inhibitory concentration (IC50) was 37.7 nM. `CCOC(=O)N1CC=C(c2cccn3nc(Nc4ccc(C(=O)NCCCN5CCN(C)CC5)cc4)nc23)CC1` [Example 2-291, ethyl 4-[2-[4-[3-(4-methylpiperazin-1-yl)propylcarbamoyl]anilino]-[1,2,4]triazolo[1,5-a]pyridin-8-yl]-3,6-dihydro-2H-pyridine-1-carboxylate]: the IC50 stood at 22.3 nM.

For `CCOC(=O)N1CC=C(c2cccn3nc(Nc4ccc(C(=O)NCC5CCCN(C)C5)cc4)nc23)CC1` (centres unmarked) [Example 2-293, ethyl 4-[2-[4-[(1-methyl-3-piperidyl)methylcarbamoyl]anilino]-[1,2,4]triazolo[1,5-a]pyridin-8-yl]-3,6-dihydro-2H-pyridine-1-carboxylate], the IC50 was determined as 29.5 nM.

Consider `CCOC(=O)N1CC=C(c2cccn3nc(Nc4ccc(C(=O)NCC5CCNC5)cc4)nc23)CC1` (centres unmarked) [Example 2-296, ethyl 4-[2-[4-(pyrrolidin-3-ylmethylcarbamoyl)anilino]-[1,2,4]triazolo[1,5-a]pyridin-8-yl]-3,6-dihydro-2H-pyridine-1-carboxylate], for which the half-maximal inhibitory concentration (IC50) stood at 383 nM. With `CCOC(=O)N1CC=C(c2cccn3nc(Nc4ccc(C(=O)NCC5CC56CCNCC6)cc4)nc23)CC1` (centres unmarked) [Example 2-306, ethyl 4-[2-[4-(6-azaspiro[2.5]octan-2-ylmethylcarbamoyl)anilino]-[1,2,4]triazolo[1,5-a]pyridin-8-yl]-3,6-dihydro-2H-pyridine-1-carboxylate], the IC50 turned out to be 438 nM. The same measure for `CCOC(=O)N1CC=C(c2cccn3nc(Nc4ccc(C(=O)N5CCC6CNCC65)cc4)nc23)CC1` (centres unmarked) [Example 2-308, ethyl 4-[2-[4-(3,3a,4,5,6,6a-hexahydro-2H-pyrrolo[2,3-c]pyrrole-1-carbonyl)anilino]-[1,2,4]triazolo[1,5-a]pyridin-8-yl]-3,6-dihydro-2H-pyridine-1-carboxylate]: 76.1 nM; for `O=C(CCC(F)(F)F)N1CC=C(c2cccn3nc(Nc4ccc(C(=O)N5CC6CNCC6C5)cc4)nc23)CC1` (centres unmarked) [Example 2-313, 1-[4-[2-[4-(2,3,3a,4,6,6a-hexahydro-1H-pyrrolo[3,4-c]pyrrole-5-carbonyl)anilino]-[1,2,4]triazolo[1,5-a]pyridin-8-yl]-3,6-dihydro-2H-pyridin-1-yl]-4,4,4-trifluoro-butan-1-one]: 184 nM; for `O=C(CCC(F)(F)F)N1CC=C(c2cccn3nc(Nc4ccc(C(=O)N5CCC6(CC5)CNC6)cc4)nc23)CC1` [Example 2-314, 1-[4-[2-[4-(2,7-diazaspiro[3.5]nonane-7-carbonyl)anilino]-[1,2,4]triazolo[1,5-a]pyridin-8-yl]-3,6-dihydro-2H-pyridin-1-yl]-4,4,4-trifluoro-butan-1-one]: 194 nM.
